Test results: patent US12414990B2, “Use of HLA-A*11:01-restricted hepatitis B virus (HBV) peptides for identifying HBV-specific CD8+ T cells” (AGENCY FOR SCIENCE, TECHNOLOGY AND RESEARCH, priority 2019, dated 2025)
Entries after “also recorded” stand apart in the source; their conditions may differ.

Assays:
[1] = test system: HLA-A*11:01-restricted antigen-specific CD8+ T cells in patient's PBMC; experiment: Highly multiplexed combinatorial pMHC tetramer staining with mass cytometry (epitope mapping, frequency of antigen-specific CD8+ T cells); settings: ex vivo PBMC; groups IT, IA, InA, R, HD, CB
[2] = test system: virus-specific CD8+ T cells in patient PBMC; experiment: In vitro virus-specific CD8+ T cell expansion by peptide stimulation with intracellular cytokine staining; format: cell-based, human
Method: PBMC from patients were thawed and recovered, and then resuspend in AIM-V medium (with 2% human AB serum, 1% penicillin/streptomycin/L-glutamine, 1% 1M HEPES) (Gibco, Invitrogen) with 20 IU/ml of recombinant human IL-2 (R&D). Cells were pulsed with corresponded HBV or control peptides at 1 μM per 1 million cells in 200 μl medium in 96-well round-bottom tissue culture plate and cultured for 10 days at 37° C. Half of the medium was replaced as supplementary every three days without any peptide. […] After incubation, cells were collected and then stained with the 50-plex pMHC tetramers (table S1) and surface antibodies. Intracellular cytokine staining was performed on the second day as indicated in (table S2). All staining, cellular barcoding, and CD8 T cell enrichment were done in the same manner as ex vivo staining described above.

[3] = test system: antigen-specific CD8+ T cells; experiment: High-dimensional phenotypic profiling of antigen-specific CD8+ T cells (t-SNE, Phenograph, One-SENSE, Scorpius); format: cell-based, human
Method: Validated antigen-specific CD8+ T cells were exported individually from each donor for dimensionality reduction analysis. Detailed methodology for t-SNE and One-SENSE can be found elsewhere. Briefly, t-SNE and One-SENSE were performed using custom R scripts based on “flowCore” and “Rtsne” packages downloaded from The Comprehensive R Archive Network (CRAN). All data were transformed using the “logicleTransform” function and w=0.25, t=16409, m=4.5, a=0 as input parameters to roughly match scaling historically used in FlowJo. Cellular markers analyzed by t-SNE and One-SENSE were indicated (table S2). For One-SENSE, cellular markers in each T cell category (“Differentiation+TNFR”, “Exhaustion” and “Trafficking”) were subjectively assigned for categorical analysis. Aligned heatplots represent the distribution of marker positive cells in percentage on each “bin” on the axis (category) constructed by cells residing in small ranges of values. Positive population of markers was manually defined and markers of the same category were combined for each dimension using 250 bins.
Logistic regression was performed using the drc R package (v 3.0.1) using a 3-parameters logistic model.

Q: Which “detection / frequency of epitope-specific CD8+ T cells across patient groups” value [1] does the source give for “LVVDFSQFSR (Hepatitis B virus) [HBV-P-387]” here?
A: The value was “highest frequencies observed; also recorded: relatively high frequency in CHB and also in half of the HD tested”.

Q: What about the “expansion of antigen-specific CD8+ T cells upon peptide stimulation” value ([2]; 10 days in vitro culture, 1 μM peptide) of the same sequence?
A: Its value is “less expanded in IT patients”.

Q: What about the “functional subset of virus-specific CD8+ T cells after antigen recall (One-SENSE)” value ([2]; 10 days in vitro peptide stimulation, restimulation 7 hours) of the same sequence?
A: Its value is “multi-functional subset”.

Q: What about the “numbers of co-expressed inhibitory receptors on epitope-specific CD8+ T cells” value ([3]; Boolean strategy, across patient groups) of the same sequence?
A: The value was “no differences in terms of the numbers accumulated on the cells across patient groups”.

Q: What about the “proportion of cells with C13-like phenotype (CXCR3+CD27hiCD127hi) within HBVpol387-specific CD8+ T cells” value ([3]; IT patients) of the same sequence?
A: The value was roughly 80%.
